PubChem BioAssay AID1324 (NMMLSC, 2008)
Active and inactive are the calls of the source. The rule behind the calls is not given here.

Biological target: glutathione S-transferase (GST-GSH binding)
Assay: GST–glutathione interaction disruption – biochemical, multiplex beads, flow cytometry, HPSMTB buffer, profiling panel (AID 1324);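 note: glutathione beads loaded with GST-green fluorescent protein and no fluorescent Bim peptide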
Conditions: multiplex bead flow cytometry, MCF; for percent span inhibition: active compounds read high, concentration not given here

Structure (SMILES) | percent span inhibition | EC50
CCN(CC)c1ccc(-c2nn3c(-c4cccnc4)nnc3s2)cc1 | inactive | –
CNc1nc2ccccc2n1/N=C/c1cccc(OC)c1OC | inactive | –
CC(C)NS(=O)(=O)c1ccc(OCC(=O)Nc2ccc(F)cc2)cc1 | inactive | –
O=C1NCCN1C(=O)N(c1ccccc1)c1ccccc1 | inactive | –
CCOC(=O)CSc1nnc(-c2cccc(Cl)c2)n1CC | inactive | –
Cc1ccc(C(=O)N(CCCN(C)C)c2nc3ccc(Cl)cc3s2)cc1C | inactive | –
Cc1cc(C)cc(-n2c(C)nc3cc(C(=O)O)ccc32)c1 | inactive | –
Cc1[nH]nc(SCC(=O)NCc2ccc(F)cc2)c1[N+](=O)[O-] | inactive | –
CN1CCN(c2ccc(N)cc2)CC1 | – | inactive
CCOC(=O)c1sc(N)c(C(=O)Nc2ccccc2OC)c1C | inactive | –
COc1ccccc1Cn1nnc2c(=O)[nH]c(C3CCN(C(=O)c4ccc(C)cc4)CC3)nc21 | inactive | –
Cc1ccc(/C=C/C(=O)c2ccccc(=O)c2O)cc1C | inactive | –
Clc1nssc1=Nc1ccc(Br)cc1 | inactive | –
CC(=O)c1ccc(NC(=O)c2ccc3nc(-c4ccco4)c(-c4ccco4)nc3c2)cc1 | inactive | –
CCOc1ccc(C(=O)Nc2nnc(NC(=S)Nc3ccccc3)s2)cc1 | inactive | –
Cc1ccccc1-n1c(SCc2cccc(F)c2)nc2[nH]ncc2c1=O | inactive | –
COc1cccc(-n2nnnc2SCC(=O)Nc2cccc(NC(C)=O)c2)c1 | inactive | –
O=C(CSc1ccc2nnc(-c3ccccn3)n2n1)Nc1nccs1 | inactive | –
Cc1ccc(NS(=O)(=O)c2cc(NC(=O)c3ccc4c(c3)NC(=O)CS4)ccc2C)c(C)c1 | inactive | –
CN(C)c1ccc(C(=O)/C=C/c2ccc(Br)cc2)cc1 | inactive | –
Cc1ccc2nc3c(cc(C(N)=S)c(=N)n3CCCOC(C)C)c(=O)n2c1 | inactive | –
CC(C)=C1C(=O)NN(c2ccc(C)c(Cl)c2)C1=O | inactive | –
Cc1nc(NC(=O)CC(C)C)sc1-c1csc(Nc2ccc(Cl)cc2)n1 | inactive | –
Cc1cc(-c2nnc(CCC(=O)NC(C)c3cccc4ccccc34)o2)no1 (centres undefined) | inactive | –
COC(=O)c1cccc(-n2c(C)cc(C=O)c2C)c1 | inactive | –
CCOC(=O)C1=C(CC)Nc2ccccc2N=C1NC(=O)c1ccc(S(=O)(=O)N2CCOCC2)cc1 | inactive | –
Cc1ccc(NC(=O)CSc2nc3ccccc3c(=O)n2CCCN2CCCCC2)cc1Cl | inactive | –

Structure (SMILES) | percent span inhibition | EC50
CNC(=O)c1sc(-c2ccccn2)nc1C | inactive | –
O=C(Nc1ccccc1)Nc1ccc2ncoc2c1 | inactive | –
COc1ccccc1NC(=O)CSc1nnc(-c2ccco2)n1Cc1ccco1 | inactive | –
COc1ccccc1-n1c(-c2ccc(Cl)cc2)c[nH]c1=S | inactive | –
CCOC(=O)C1=C(CP(=O)(c2ccccc2)c2ccccc2)NC(=O)NC1c1ccc(OC)cc1 (centres undefined) | inactive | –
COc1ccc(Cl)cc1-n1c(C)cc(C=O)c1C | inactive | –
Cc1ccc(NC2=C(NC(=O)c3ccccc3)C(=O)c3ccccc3C2=O)cc1Cl | inactive | –
O=[N+]([O-])c1ccc(N/N=C/c2ccc(O)c(O)c2O)c(S(=O)(=O)N2CCOCC2)c1 | – | inactive
Cc1ccc(NC(=O)CC2S/C(=N/N=C/c3c[nH]c4ccccc34)NC2=O)cc1 (centres undefined) | inactive | –
CCCCNC(=O)c1ccc2nc(-c3ccco3)c(-c3ccco3)nc2c1 | inactive | –
CN=c1scc(C)n1/N=C/c1ccc(O)c(O)c1O | inactive | –
O=C1c2ccccc2-c2onc3ccc(N4CCCC4)c1c23 | inactive | –
CCOC(=O)c1cc2c(=O)n3cccc(C)c3nc2n(Cc2ccco2)c1=NC(=O)c1ccccc1 | inactive | –
COc1ccc(CC(=O)Nc2ccc(C(=O)Nc3nccs3)cc2)cc1OC | inactive | –
O=C1CSc2ccc(C(=O)Nc3cccc(S(=O)(=O)Nc4ccc(Br)cc4)c3)cc2N1 | inactive | –
N#Cc1cccc(N=c2ssnc2Cl)c1 | inactive | –
CN(Cc1cccs1)C(=O)CCc1c[nH]c2ccccc12 | inactive | –
Fc1cccc(Nc2nc(-c3ccncc3)nc3ccccc23)c1 | inactive | –
Cc1nn(-c2ccc(Cl)cc2)c(Cl)c1/C=C(\C#N)C(N)=O | inactive | –
COc1ccc(C2=Nn3c(nnc3-c3ccccn3)SC2)cc1OC | inactive | –
CNc1ccccc(C(=O)/C=C/c2ccccc2OC)c1=O | inactive | –
CCN1/C(=C/c2ccc3cc(C)cc(C)c3[n+]2CC)Sc2cc(C)ccc21 | inactive | –
COc1ccc(C(=O)NC(=S)N2CCNC(=O)C2)cc1Br | inactive | –
COc1ccc(N=C2NC(=O)/C(=C\C=C\c3ccco3)S2)cc1 | inactive | –
Nc1ccc(-c2cn3cccnc3n2)cc1 | inactive | –
COc1ccc(C(=O)Nc2ccc(NC(=O)c3cccs3)cc2)cc1Cl | inactive | –
COc1ccc(NC(=O)Cc2c(F)cccc2Cl)c(OC)c1 | inactive | –
